In patent US6680058B1, “Compositions and methods for contraception in or sterilization of mammals” (Board of Supervisors of Louisiana State University and …, priority 1997, dated 2004):
Where no end group is shown, it is not given here.

Tests used:
[1] = system: sexually immature female rats; assay: Sexually immature female rats, two intravenous injections, examined after reaching breeding age (Examples 7-8); type: in vivo, rat
Procedure: Two sexually immature female rats from the same litter (age 33 days) were given two intravenous injections of saline control solution 24 hours apart. After the rats reached breeding age, they were examined 105 days post-inoculation. […] During a fourteen-day monitoring period 107 days to 121 days post-inoculation, each of the control rats completed two estrous cycles. The rats were then sacrificed and necropsied. The reproductive organs appeared histologically normal.
Two sexually immature female rats from the same litter as those of Example 7 (age 33 days) were given two intravenous injections of 500 μg GnRH/hecate fusion peptide in saline 24 hours apart. After the rats reached breeding age, they were examined 105 days post-inoculation. […] Unlike the control rats, insertion of a cotton-tipped swab into the vagina was difficult. […] The rats were then sacrificed and necropsied.

[2] = system: sexually mature, mixed breed, female rats; assay: Sexually mature female rats, double intravenous treatment, necropsy two weeks after treatment (Examples 9-14); type: in vivo, rat
Source text: Eighteen sexually mature, mixed breed, female rats were randomly assigned to one of six groups containing three rats each. Each group of rats received a double treatment intravenously, as described below. Two weeks after the treatment, the rats were sacrificed and necropsied. The reproductive and endocrine organs were sectioned, weighed, and examined histologically.

[3] = system: gonadotropes in the pituitary and neurons in the brain bearing GnRH receptors; assay: Rats, treatments generally similar to treatments 9-14, immunohistochemical staining (Example 23); type: in vivo, rat; details: fusion peptide administered
Procedure: Subsequent experiments were conducted on rats using treatments generally similar to treatments 9-14 above. […] The selective killing of these cells was seen after the GnRH-hecate fusion peptide was administered; and after the administration of GnRH alone, followed 10 minutes later by the administration of hecate alone.

[4] = system: sexually immature female rats; assay: Thirty-three-day-old sexually immature female rats, intravenous, sacrificed 14 days after treatment, histology and immunocytochemistry (Examples 35-38); type: in vivo, rat; details: Treatment 37: 0.5 mg i.v.
Procedure: Another set of experiments was performed to study the in vivo effects of the GnRH-hecate conjugate on female rats and rabbits. The ovaries, uterus, oviducts, adrenals, spleen, thyroids, pancreas, liver, lungs, and heart were processed for histological analysis. […] The immunocytochemical staining procedures we used followed generally the procedures of M. Rahmanian et al., “Histological and immunocytochemical characterization of pituitary cell types in ponies,” Proc. 13th Soc. Equine Nutrition & Phys. Symp., pp. 348-349 (1993); M. Rahmanian et al., “Immunocytochemical localization of luteinizing hormone and follicle-stimulating hormone in the equine pituitary,” J. Anim. Sci., vol. 76, pp. 839-846 (1998); M. Rahmanian et al., “Immunocytochemical localization of prolactin and growth hormone in the equine pituitary,” Animal Sci., vol. 75, pp. 3010-3018 (1997); and P. Melrose et al., “Comparative topography of the immunoreactive alpha-melanocyte-stimulating hormone neuronal system in the brains of horses and rats,” Brain Beh. & Evol., vol. 32, pp. 226-235 (1988).
Brains were serially sectioned on a Vibrotome from the level of the diagonal band of Broca to the mammillary body. Alternate sections were consecutively divided into four to five dishes, and sections in alternate dishes were stained with cresyl violet, or were stained immunocytochemically for GnRH or the GnRH precursor, VP, OXY, or tyrosine hydroxylase (the rate-limiting enzyme in catecholamine synthesis). In addition to the staining procedures cited above, we also used the immunocytochemical staining procedures of P. Melrose et al., “Distribution and morphology of immunoreactive gonadotropin-releasing hormone (GnRH) neurons in the basal forebrain of ponies,” J. Comp. Neurol. vol. 339, pp. 269-287 (1994); and P. Melrose et al., “Topography of oxytocin and vasopressin neurons in the forebrain of Equus caballus: Further support of proposed evolutionary relationships for proopiomelanocortin, oxytocin and vasopressin neurons,” Brain, Beh. & Evol., vol. 33, pp. 193-204 (1989).
Thirty-three-day-old, sexually immature female rats were given intravenous administrations as follow:
Animals were sacrificed 14 days after treatment.

[5] = system: sexually immature female rats; assay: Sexually immature (33 day old) female rats, intravenous GnRH-hecate dose series, sacrificed at 24 hours or 14 days (Examples 39-43); type: in vivo, rat; details: for abnormal GnRH-receptor-containing neurons: sacrificed fourteen days after treatment
Procedure: Sexually immature (33 day old) female rats (randomly allocated into groups of three) were injected intravenously with saline or GnRH-hecate in saline as follows:
Animals were sacrificed at 24 hours or at 14 days after treatment. […] In the rats sacrificed fourteen days after treatment, 66% and 87% of the GnRH-receptor-containing neurons were abnormal in the rats that had received 1.0 and 1.5 mg of GnRH-hecate, respectively. Axonal degeneration in the 1.5 mg GnRH-hecate group was accompanied by over 90% reduction in median eminence staining for GnRH.

[6] = system: sexually mature female New Zealand rabbits; assay: Sexually mature female New Zealand rabbits, intravenous GnRH-hecate, GnRH challenge day 46, histology day 47 (Examples 44-46); type: in vivo, rabbit
Procedure: Seven sexually mature female New Zealand rabbits were injected intravenously with saline containing GnRH-hecate as follows:
Forty-six days later all rabbits were injected intramuscularly with 100 μg GnRH. Blood samples were collected at 0, 1, 4, and 24 hours, and LH and FSH levels in the blood samples were measured by radioimmunoassay. […] The rabbits were sacrificed the next day (day 47) for postmortem histological analysis. […] Ovarian and pituitary weights were reduced by the 10 mg GnRH-hecate treatment.

[7] = system: GnRH receptor-bearing cells in the brain (neurons) and in the pituitary (gonadotrophic cells); assay: Summary of the in vivo studies: selectivity of the GnRH-hecate conjugate; set-up: species or system rats and rabbits
[8] = two i.v. injections of 500 μg 24 hours apart at age 33 days, necropsy after day 121
[9] = Treatment 10: two 0.5 mg i.v. injections 24 hours apart, two weeks
[10] = Treatment 14: fusion peptide further purified by HPLC, two 0.5 mg i.v. injections 24 hours apart
[11] = 0.1 to 1.5 mg i.v., 24 hours or 14 days

Substance: GnRH-hecate: fusion peptide of modified GnRH bonded directly to the lytic peptide hecate, SEQ. ID NO. 3 (QHWSYGLRPGFALALKALKKALKKLKKALKKAL; ends and bridges not checked; also: GnRH part modified, modification not given here)
- estrous cycling during fourteen-day monitoring period ([1]; two i.v. injections of 500 μg 24 hours apart at age 33 days, 107 to 121 days post-inoculation): neither of the treated rats demonstrated estrous or metestrous
- insertion of a cotton-tipped swab into the vagina ([1]; two i.v. injections of 500 μg 24 hours apart at age 33 days, 105 days post-inoculation): difficult
- ovarian follicles at necropsy [1, 8]: contained no large follicles, and had a high number of atretic follicles
- uterine and oviductal epithelia at necropsy [1, 8]: thinned, inactive
- appearance of external genitalia ([1]; two i.v. injections of 500 μg in saline 24 hours apart at age 33 days, examined 105 days post-inoculation): appeared small
- ovarian function / follicular development ([2]; Treatment 10: total 1.0 mg in saline i.v. as two 0.5 mg injections 24 hours apart, two weeks): arrest of normal ovarian follicular development
- corpora lutea and follicles [2, 9]: Few corpora lutea were present, and those that were present appeared old. Follicles were large, and had not ruptured
- pituitary size [2, 9]: slightly smaller than the pituitaries from the saline control group
- uterine morphology [2, 9]: consistent with hormonal inactivity
- corpora lutea and follicles [2, 10]: Few corpora lutea were present, and those that were present appeared old. Follicles were large, and had not ruptured
- uterine morphology [2, 10]: consistent with hormonal inactivity
- ovarian function / follicular development ([2]; Treatment 14: fusion peptide further purified by HPLC, two 0.5 mg i.v. injections 24 hours apart, two weeks): arrest of normal ovarian follicular development
- LH and FSH secretion by pituitary cells [3]: no longer secreted either LH or FSH
- selective cell killing seen with immunohistochemical staining ([3]; treatments generally similar to treatments 9-14): selectively killed (1) gonadotropes in the pituitary, and (2) neurons in the brain bearing GnRH receptors
- reduction of pituitary weights compared to the two GnRH control groups ([4]; 33-day-old female rat, 14 days after treatment): 13%
- adrenocorticotropic hormone levels in the pars distalis ([4]; 14 days): reduced
- cell bodies of GnRH-stained neurons in hypophysiotropic areas of the brain ([4]; 14 days): frequently deformed
- histology of the C1 and C3 fields of the hippocampus ([4]; 14 days): histological damage to cells
- number of alpha-MSH-stained cells in the pars distalis ([4]; 14 days): increased
- pathological changes in any other tissues ([4]; 14 days): No pathological changes
- reduction of the numbers of bLH-specific gonadotropes compared to the two GnRH control groups ([4]; 14 days): 92%
- VP staining in the paraventricular nucleus ([4]; 14 days, may have been caused by a precipitate): increased staining of parvicellular VP neurons in the paraventricular nucleus
- abnormal GnRH-receptor-containing neurons ([5]; 1.0 mg i.v.): 66%
- reduction in median eminence staining for GnRH ([5]; 1.5 mg i.v.): over 90%
- abnormal GnRH-receptor-containing neurons ([5]; 1.5 mg i.v.): 87%
- VP staining in the CNS [5, 11]: not altered
- precipitate in the brain [5, 11]: no precipitate was found in the brain
- morphology of GnRH-receptor-containing neurons ([5]; treatments with higher levels of GnRH-hecate): a large number of GnRH-receptor-containing neurons having abnormal morphologies
- LH release in response to 100 μg GnRH i.m. ([6]; 5 mg or 10 mg i.v., challenge forty-six days later, radioimmunoassay): released LH in response to the GnRH
- cells staining alpha-MSH in the pituitary ([6]; 5 mg or 10 mg i.v., day 47): increased numbers
- cells staining for LH in the pituitary ([6]; 5 mg or 10 mg i.v., day 47): reduced numbers
- hippocampus and other areas of the brain containing high concentrations of GnRH ([6]; 5 mg or 10 mg i.v., day 47): not discernibly affected
- immunoreactive GnRH in CNS areas normally containing cell bodies ([6]; 5 mg or 10 mg i.v., day 47): faint and diffusely localized
- numbers of GnRH-induced ovulations ([6]; 5 mg or 10 mg i.v., day 47): reduced
- numbers of corpora lutea ([6]; 5 mg or 10 mg i.v., day 47): reduced
- numbers of tertiary follicles ([6]; 5 mg or 10 mg i.v., day 47): reduced
- reduction in number of normal individual cell bodies ([6]; 5 mg or 10 mg i.v., day 47): at least 50%
- terminal fields, which normally contain the axons of GnRH receptor neurons ([6]; 5 mg or 10 mg i.v., day 47): not stained for GnRH
- number of PAS-stained pituitary cells in the pars distalis, relative to control rabbits ([6]; 5 mg or 10 mg i.v., day 47, control = 100%): 177%
- ovarian weights ([6]; 10 mg i.v., day 47): reduced
- pituitary weights ([6]; 10 mg i.v., day 47): reduced
- changes in other endocrine and non-endocrine tissues (except for the ovary) [7]: No changes
- changes in pituitary cells that lacked GnRH receptors [7]: No changes
- cytotoxic changes in neurons that lacked GnRH receptors [7]: No cytotoxic changes
- effect on GnRH receptor-bearing cells [7]: selectively damaged GnRH receptor-bearing cells in the brain (neurons) and in the pituitary (gonadotrophic cells)
